Activity calls are given as the source filed them. The calls are words filed in the database; no cut-off is given here. Residues, ends and D or L forms follow the SMILES beside them. *: point of attachment. X2 = C[C@H](N*)C(=O)N(C(=O)c1cn(CCOCCOCCOc2nc(N)c3nc(O)n(Cc4ccccc4)c3n2)nn1)[C@@H](CCCCN)C(N)=O; X1 = Nc1nc(OCCOCCOCCn2cc(C(=O)*)nn2)nc2c1nc(O)n2Cc1ccccc1

Holding throughout (format): functional, cell-based
Details in all cases: Homo sapiens

For assay [1], the system named is Dendritic cell. In words: Induction of IL-12p40 in dendritic cells.
Assay [2] deals with Dendritic cell. Nature of the assay: Inhibition of antigen presentation in dendritic cells.
Assay [3] concerns Dendritic cell. In words: Induction of antigen presentation in dendritic cells.

For `COCCOc1nc(N)c2[nH]c(=O)n(Cc3ccccc3)c2n1`, the result in the assay with Dendritic cell [1] was Active.

In the case of `[N-]=[N+]=NCCOCCOCCOc1nc(N)c2[nH]c(=O)n(Cc3ccccc3)c2n1`, the result in the assay on Dendritic cell [1] was Active.

On to `CC[C@H](C)[C@H](NC(=O)[C@H](CO)NC(=O)[C@H](CCC(=O)O)NC(=O)[C@H](CC(C)C)NC(=O)[C@H](CCC(N)=O)NC(=O)[C@H](CCC(=O)O)NC(=O)[C@H](CC(C)C)NC(=O)CNC(=O)[C@H](CO)NC(=O)[C@@H](NC(=O)[C@H](CCC(=O)O)NC(=O)[C@@H](N)CC(=O)O)C(C)C)C(=O)N[C@H](C(=O)N[C@@H](CC(N)=O)C(=O)N[C@@H](Cc1ccccc1)C(=O)N[C@@H](CCC(=O)O)C(=O)N[C@@H](CCCCN)C(=O)N[C@@H](CC(C)C)C(=O)N[C@@H](C)C(=O)N[C@@H](C)C(=O)N[C@@H](C)C(=O)N[C@@H](C)C(=O)N[C@@H](C)C(=O)N(C(=O)c1cn(CCOCCOCCOc2nc(N)c3nc(O)n(Cc4ccccc4)c3n2)nn1)[C@@H](CCCCN)C(N)=O)[C@@H](C)CC` (H-DEVSGLEQLESIINFEKLAAAA-X2), for which the outcome with Dendritic cell [2] and with Dendritic cell [3] was Active.

`CC[C@H](C)[C@H](NC(=O)[C@H](CO)NC(=O)[C@H](CCC(=O)O)NC(=O)[C@H](CC(C)C)NC(=O)[C@H](CCC(N)=O)NC(=O)[C@H](CCC(=O)O)NC(=O)[C@H](CC(C)C)NC(=O)CNC(=O)[C@H](CO)NC(=O)[C@@H](NC(=O)[C@H](CCC(=O)O)NC(=O)[C@H](CC(=O)O)NC(=O)c1cn(CCOCCOCCOc2nc(N)c3nc(O)n(Cc4ccccc4)c3n2)nn1)C(C)C)C(=O)N[C@H](C(=O)N[C@@H](CC(N)=O)C(=O)N[C@@H](Cc1ccccc1)C(=O)N[C@@H](CCC(=O)O)C(=O)N[C@@H](CCCCN)C(=O)N[C@@H](CC(C)C)C(=O)O)[C@@H](C)CC` (X1-DEVSGLEQLESIINFEKL-OH): the result in the assay on Dendritic cell [2] and in the assay on Dendritic cell [3] was Active.

On to `CC[C@H](C)[C@H](NC(=O)[C@H](CO)NC(=O)[C@H](CCC(=O)O)NC(=O)[C@H](CC(C)C)NC(=O)[C@H](CCC(N)=O)NC(=O)[C@H](CCC(=O)O)NC(=O)[C@H](CC(C)C)NC(=O)CNC(=O)[C@H](CO)NC(=O)[C@@H](NC(=O)[C@H](CCC(=O)O)NC(=O)[C@H](CC(=O)O)NC(=O)c1cn(CCOCCOCCOc2nc(N)c3nc(O)n(Cc4ccccc4)c3n2)nn1)C(C)C)C(=O)N[C@H](C(=O)N[C@@H](CC(N)=O)C(=O)N[C@@H](Cc1ccccc1)C(=O)N[C@@H](CCC(=O)O)C(=O)N[C@@H](CCCCN)C(=O)N[C@@H](CC(C)C)C(=O)N[C@@H](C)C(=O)N[C@@H](C)C(=O)N[C@@H](C)C(=O)N[C@@H](C)C(=O)N[C@@H](C)C(=O)N[C@@H](CCCCN)C(N)=O)[C@@H](C)CC` (X1-DEVSGLEQLESIINFEKLAAAAAK-NH2), for which the result with Dendritic cell [2] and with Dendritic cell [3] was Active.

The values above are taken from ChEMBL document CHEMBL1147819, “Synthesis of 2-alkoxy-8-hydroxyadenylpeptides: towards synthetic epitope-based vaccines” (Bioorg Med Chem Lett, 2006).
